Experimental data from publication PMC6847993 (Drug Design, Development and Therapy, 2019).

Target: XLF (Homo sapiens, UniProt Q9H9Q4)
Assay: Thermoshift assay of XLF stability in cells
Format: cell-based

Sequence of XLF (Q9H9Q4 whole entry): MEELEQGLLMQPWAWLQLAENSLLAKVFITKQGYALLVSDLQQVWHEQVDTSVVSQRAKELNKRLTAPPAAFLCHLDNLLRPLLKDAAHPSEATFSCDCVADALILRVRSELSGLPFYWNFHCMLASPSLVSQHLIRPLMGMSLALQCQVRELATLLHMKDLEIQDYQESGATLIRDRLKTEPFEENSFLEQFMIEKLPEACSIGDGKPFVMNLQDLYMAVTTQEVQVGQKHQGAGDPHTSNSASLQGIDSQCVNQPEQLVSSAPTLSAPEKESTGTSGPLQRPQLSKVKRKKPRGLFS

Interaction with XLF (XLF stability) | SMILES
interacted with XLF | Oc1ccc(/C=C/c2cc(O)cc(O)c2)cc1 [resveratrol]
interacted with XLF | COc1cc(O)cc(CCc2ccc(O)c(OC)c2)c1 [Gigantol, gigantol]
interacted with XLF | CC[C@]1(O)C[C@H]2CN(CCc3c([nH]c4ccccc34)[C@@](C(=O)OC)(c3cc4c(cc3OC)N(C=O)[C@H]3[C@@](O)(C(=O)OC)[C@H](OC(C)=O)[C@]5(CC)C=CCN6CC[C@]43[C@@H]65)C2)C1 [vincristine]
